Results reported in article PMC9329436, “Optimization of the 4-anilinoquin(az)oline scaffold as epidermal growth factor receptor (EGFR) inhibitors for chordoma utilizing a toxicology profiling assay platform” (Scientific Reports, 2022).
Read-outs that look alike come from different tables or passages of the source.

Tests used:
Format in all cases: biochemical
[1] = target: 320 wild-type protein kinases (Homo sapiens, UniProt O00311); conditions: singlicate
From the text: (§1) Table S4. Profiling of two compounds at two concentrations against 320 wild-type protein kinases; singlicate measurement; Residual activities (% of control).

[2] = target: T1, 320 wild-type protein kinases (Homo sapiens, UniProt O43781); conditions: singlicate
T1 sequence (O43781 1-588): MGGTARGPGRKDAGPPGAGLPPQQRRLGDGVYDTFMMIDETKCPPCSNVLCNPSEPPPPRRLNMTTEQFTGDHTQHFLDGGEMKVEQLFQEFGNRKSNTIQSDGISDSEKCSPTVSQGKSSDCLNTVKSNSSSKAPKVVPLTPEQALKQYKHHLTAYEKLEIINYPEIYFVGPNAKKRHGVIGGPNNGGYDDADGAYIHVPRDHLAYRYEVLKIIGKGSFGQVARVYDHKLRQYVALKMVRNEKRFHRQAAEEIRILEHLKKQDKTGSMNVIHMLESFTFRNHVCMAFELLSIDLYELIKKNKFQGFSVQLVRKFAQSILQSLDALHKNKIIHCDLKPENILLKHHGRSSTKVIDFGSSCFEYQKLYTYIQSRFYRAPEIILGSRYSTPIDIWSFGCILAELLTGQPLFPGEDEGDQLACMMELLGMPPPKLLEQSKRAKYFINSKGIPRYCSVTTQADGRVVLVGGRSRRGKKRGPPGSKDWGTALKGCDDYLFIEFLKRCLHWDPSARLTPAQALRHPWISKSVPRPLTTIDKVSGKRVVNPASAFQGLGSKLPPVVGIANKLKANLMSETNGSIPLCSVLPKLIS
From the text: as §1

[3] = target: 320 wild-type protein kinases (Homo sapiens, UniProt O75116); conditions: kinase ROCK2, singlicate
From the text: as §1

[4] = target: 320 wild-type protein kinases (Homo sapiens, UniProt P16234); conditions: PDGFR-alpha, singlicate
From the text: as §1

[5] = target: 320 wild-type protein kinases (Homo sapiens, UniProt P48730); conditions: CK1-delta, singlicate
From the text: as §1

[6] = target: 320 wild-type protein kinases (Homo sapiens, UniProt P49336); conditions: CDK8/CycC, singlicate
From the text: as §1

[7] = target: T2, 320 wild-type protein kinases (Homo sapiens, UniProt Q04771); conditions: singlicate
T2 sequence (Q04771 21-509): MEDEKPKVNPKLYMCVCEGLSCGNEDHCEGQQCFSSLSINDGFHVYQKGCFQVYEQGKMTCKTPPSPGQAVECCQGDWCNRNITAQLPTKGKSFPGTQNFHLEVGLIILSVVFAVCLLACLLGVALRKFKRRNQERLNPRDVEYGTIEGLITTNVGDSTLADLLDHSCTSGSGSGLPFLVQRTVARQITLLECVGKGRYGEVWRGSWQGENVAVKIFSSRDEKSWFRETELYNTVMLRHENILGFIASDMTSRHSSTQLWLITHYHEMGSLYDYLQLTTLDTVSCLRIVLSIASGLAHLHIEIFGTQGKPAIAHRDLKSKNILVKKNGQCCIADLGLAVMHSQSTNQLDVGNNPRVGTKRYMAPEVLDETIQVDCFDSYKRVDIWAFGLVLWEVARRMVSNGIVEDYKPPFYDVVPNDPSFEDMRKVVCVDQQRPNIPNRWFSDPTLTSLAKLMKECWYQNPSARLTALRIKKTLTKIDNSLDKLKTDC
From the text: as §1

[8] = target: 320 wild-type protein kinases (Homo sapiens, UniProt Q16539); conditions: p38-alpha, singlicate
From the text: as §1

[9] = target: 320 wild-type protein kinases (Homo sapiens, UniProt Q7KZI7); conditions: singlicate
From the text: as §1

[10] = target: T3, 320 wild-type protein kinases (Homo sapiens, UniProt Q9BZL6); conditions: singlicate
T3 sequence (Q9BZL6 1-878): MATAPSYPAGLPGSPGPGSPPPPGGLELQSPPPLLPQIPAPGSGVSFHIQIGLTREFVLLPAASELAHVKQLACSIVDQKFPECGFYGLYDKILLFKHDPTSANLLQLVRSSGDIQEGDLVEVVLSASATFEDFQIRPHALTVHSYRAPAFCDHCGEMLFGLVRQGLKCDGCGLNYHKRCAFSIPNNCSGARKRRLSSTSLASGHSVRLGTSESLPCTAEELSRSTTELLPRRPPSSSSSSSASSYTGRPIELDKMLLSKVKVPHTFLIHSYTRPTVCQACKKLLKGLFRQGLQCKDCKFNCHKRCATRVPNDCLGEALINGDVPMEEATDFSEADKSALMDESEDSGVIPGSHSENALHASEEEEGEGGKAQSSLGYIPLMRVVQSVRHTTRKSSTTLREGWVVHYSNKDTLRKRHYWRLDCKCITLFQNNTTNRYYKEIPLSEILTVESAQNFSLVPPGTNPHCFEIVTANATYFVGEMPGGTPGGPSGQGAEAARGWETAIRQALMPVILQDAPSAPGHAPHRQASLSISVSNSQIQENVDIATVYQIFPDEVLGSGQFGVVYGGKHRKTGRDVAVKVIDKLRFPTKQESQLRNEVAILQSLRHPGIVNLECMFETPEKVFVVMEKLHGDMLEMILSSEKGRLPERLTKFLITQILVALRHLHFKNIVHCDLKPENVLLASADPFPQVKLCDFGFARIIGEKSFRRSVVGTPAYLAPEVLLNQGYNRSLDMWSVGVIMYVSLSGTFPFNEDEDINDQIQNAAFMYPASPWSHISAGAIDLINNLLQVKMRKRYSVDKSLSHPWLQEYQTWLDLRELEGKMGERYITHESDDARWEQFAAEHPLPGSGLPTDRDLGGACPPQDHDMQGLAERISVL
From the text: as §1

Chain of 320 wild-type protein kinases (Homo sapiens, UniProt O00311) (O00311 whole entry): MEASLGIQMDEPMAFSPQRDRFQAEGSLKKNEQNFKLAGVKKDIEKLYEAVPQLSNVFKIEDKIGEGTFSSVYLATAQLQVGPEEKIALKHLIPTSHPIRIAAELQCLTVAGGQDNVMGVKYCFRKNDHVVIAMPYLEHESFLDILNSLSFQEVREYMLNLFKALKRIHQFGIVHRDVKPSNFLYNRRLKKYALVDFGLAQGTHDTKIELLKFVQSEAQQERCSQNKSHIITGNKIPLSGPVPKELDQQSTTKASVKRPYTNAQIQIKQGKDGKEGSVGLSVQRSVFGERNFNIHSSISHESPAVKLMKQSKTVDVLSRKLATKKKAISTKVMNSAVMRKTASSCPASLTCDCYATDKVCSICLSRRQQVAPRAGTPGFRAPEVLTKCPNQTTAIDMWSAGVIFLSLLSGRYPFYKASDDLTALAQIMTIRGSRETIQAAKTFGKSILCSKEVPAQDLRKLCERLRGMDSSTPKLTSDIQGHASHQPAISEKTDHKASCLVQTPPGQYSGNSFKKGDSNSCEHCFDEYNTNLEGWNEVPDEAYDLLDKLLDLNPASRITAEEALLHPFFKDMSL
Chain of 320 wild-type protein kinases (Homo sapiens, UniProt P49336) (P49336 whole entry): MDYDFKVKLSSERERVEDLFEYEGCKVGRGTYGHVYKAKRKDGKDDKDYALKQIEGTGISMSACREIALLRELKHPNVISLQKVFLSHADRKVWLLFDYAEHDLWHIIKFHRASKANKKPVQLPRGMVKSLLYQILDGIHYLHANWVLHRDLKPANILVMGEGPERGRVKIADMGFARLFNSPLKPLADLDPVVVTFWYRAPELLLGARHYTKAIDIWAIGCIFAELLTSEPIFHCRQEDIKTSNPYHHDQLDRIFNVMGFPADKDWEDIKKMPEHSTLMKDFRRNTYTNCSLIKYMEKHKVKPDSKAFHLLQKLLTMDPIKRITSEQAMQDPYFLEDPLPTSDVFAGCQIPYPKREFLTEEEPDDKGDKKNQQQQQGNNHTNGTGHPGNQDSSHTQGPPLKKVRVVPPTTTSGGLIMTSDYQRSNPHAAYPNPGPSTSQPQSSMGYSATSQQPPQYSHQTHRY
Chain of 320 wild-type protein kinases (Homo sapiens, UniProt P16234) (P16234 24-1089): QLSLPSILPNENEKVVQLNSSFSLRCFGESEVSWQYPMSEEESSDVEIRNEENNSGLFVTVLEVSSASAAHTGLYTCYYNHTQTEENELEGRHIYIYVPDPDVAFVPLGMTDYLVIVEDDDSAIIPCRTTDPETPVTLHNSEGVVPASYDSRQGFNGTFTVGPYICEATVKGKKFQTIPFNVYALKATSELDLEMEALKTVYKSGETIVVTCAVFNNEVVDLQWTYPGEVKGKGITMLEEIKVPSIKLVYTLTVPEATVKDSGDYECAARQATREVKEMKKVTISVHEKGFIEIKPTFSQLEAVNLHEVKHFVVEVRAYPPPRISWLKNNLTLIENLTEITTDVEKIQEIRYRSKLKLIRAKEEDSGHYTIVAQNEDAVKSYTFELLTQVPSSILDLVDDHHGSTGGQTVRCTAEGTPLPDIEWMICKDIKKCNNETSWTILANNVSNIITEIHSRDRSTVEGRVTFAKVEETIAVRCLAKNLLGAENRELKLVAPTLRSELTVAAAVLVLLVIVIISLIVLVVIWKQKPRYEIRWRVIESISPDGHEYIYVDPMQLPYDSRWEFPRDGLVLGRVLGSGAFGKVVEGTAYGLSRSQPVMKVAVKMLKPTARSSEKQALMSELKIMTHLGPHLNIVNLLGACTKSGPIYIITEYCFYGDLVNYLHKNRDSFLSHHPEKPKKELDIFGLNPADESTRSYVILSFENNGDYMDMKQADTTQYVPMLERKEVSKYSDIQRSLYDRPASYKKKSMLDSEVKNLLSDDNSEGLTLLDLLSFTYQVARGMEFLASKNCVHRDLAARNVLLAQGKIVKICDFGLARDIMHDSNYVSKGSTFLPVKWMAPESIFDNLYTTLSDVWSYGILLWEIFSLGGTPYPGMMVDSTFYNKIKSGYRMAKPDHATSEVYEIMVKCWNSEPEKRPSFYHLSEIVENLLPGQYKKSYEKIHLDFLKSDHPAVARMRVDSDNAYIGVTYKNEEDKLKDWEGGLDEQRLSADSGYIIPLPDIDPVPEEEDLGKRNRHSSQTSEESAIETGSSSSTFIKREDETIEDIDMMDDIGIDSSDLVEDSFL
Chain of 320 wild-type protein kinases (Homo sapiens, UniProt P48730) (P48730 whole entry): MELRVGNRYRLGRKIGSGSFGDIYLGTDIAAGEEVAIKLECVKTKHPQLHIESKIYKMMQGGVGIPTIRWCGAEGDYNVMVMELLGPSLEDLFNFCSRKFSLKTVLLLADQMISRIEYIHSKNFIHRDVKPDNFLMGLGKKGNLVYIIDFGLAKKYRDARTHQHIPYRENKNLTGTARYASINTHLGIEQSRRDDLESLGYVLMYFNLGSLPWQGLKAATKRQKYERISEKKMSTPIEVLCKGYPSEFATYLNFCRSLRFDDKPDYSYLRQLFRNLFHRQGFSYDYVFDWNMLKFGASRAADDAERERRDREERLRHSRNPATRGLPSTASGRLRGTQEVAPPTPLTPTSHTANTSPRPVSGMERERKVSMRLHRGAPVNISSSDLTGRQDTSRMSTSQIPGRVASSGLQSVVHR
Chain of 320 wild-type protein kinases (Homo sapiens, UniProt Q7KZI7) (Q7KZI7 whole entry): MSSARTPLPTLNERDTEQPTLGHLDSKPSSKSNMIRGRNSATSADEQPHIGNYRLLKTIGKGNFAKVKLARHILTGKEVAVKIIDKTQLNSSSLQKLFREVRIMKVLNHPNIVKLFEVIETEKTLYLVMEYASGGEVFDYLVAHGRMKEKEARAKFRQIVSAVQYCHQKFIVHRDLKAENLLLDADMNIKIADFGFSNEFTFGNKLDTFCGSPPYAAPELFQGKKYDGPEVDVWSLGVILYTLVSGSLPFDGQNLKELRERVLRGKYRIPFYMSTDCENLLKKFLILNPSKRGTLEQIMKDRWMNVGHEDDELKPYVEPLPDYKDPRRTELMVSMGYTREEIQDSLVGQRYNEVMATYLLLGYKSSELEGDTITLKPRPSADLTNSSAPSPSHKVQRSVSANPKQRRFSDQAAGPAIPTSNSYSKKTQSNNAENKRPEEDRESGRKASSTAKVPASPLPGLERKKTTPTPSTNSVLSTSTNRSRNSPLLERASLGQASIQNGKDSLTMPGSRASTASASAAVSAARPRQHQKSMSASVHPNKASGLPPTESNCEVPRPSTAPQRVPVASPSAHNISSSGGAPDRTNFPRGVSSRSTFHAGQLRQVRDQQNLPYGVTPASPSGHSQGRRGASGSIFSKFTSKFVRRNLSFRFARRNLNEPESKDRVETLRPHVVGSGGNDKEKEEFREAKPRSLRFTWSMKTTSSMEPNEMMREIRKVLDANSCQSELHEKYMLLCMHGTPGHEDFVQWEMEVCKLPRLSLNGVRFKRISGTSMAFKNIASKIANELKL
Chain of 320 wild-type protein kinases (Homo sapiens, UniProt Q16539) (Q16539 whole entry): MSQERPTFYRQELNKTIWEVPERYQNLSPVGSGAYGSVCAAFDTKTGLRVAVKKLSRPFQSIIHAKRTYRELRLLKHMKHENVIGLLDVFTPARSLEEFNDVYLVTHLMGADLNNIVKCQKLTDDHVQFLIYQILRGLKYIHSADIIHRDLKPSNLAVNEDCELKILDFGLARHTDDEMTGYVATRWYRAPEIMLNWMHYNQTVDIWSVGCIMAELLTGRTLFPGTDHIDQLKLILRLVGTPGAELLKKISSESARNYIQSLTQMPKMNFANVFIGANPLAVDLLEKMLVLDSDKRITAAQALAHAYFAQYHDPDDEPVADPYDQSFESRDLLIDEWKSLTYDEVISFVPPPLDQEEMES
Chain of 320 wild-type protein kinases (Homo sapiens, UniProt O75116) (O75116 whole entry): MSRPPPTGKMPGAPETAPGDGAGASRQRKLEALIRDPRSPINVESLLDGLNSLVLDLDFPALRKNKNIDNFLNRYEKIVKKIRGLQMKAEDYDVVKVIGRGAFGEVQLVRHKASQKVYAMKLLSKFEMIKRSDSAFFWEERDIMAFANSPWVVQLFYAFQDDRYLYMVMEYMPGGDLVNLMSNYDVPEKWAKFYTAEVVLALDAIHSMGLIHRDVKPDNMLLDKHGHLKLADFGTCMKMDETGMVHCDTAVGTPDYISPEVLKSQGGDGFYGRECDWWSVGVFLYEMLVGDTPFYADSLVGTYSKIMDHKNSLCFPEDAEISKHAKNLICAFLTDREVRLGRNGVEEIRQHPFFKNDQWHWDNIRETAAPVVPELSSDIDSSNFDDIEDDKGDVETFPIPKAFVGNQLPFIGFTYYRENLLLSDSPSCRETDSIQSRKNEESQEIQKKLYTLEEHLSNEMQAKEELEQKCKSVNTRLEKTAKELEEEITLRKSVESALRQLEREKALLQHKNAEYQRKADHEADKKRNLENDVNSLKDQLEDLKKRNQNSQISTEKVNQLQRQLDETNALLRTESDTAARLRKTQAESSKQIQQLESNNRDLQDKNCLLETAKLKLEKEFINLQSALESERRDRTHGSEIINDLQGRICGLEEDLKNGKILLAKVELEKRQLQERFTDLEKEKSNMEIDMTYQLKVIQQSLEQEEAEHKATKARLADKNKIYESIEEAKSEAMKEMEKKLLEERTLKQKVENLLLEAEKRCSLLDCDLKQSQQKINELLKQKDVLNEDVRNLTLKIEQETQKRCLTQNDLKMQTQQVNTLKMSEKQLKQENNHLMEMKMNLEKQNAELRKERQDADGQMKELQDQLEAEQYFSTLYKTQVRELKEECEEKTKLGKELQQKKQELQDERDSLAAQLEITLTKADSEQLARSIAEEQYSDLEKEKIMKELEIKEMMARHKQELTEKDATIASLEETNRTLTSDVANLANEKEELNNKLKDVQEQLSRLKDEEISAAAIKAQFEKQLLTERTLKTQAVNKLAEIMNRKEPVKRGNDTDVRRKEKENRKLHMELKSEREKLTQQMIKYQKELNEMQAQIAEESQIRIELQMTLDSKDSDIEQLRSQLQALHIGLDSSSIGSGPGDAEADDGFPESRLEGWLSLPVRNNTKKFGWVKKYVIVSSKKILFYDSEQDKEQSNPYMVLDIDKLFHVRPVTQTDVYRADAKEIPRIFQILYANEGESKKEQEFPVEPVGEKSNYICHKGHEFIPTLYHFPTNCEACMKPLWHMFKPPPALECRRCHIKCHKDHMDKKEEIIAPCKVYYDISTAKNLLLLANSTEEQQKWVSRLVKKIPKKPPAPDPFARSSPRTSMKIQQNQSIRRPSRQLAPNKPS

SMILES | Residual activity ([1]; CDC7/DBF4, 1.0E-06 M) | Residual activity ([1]; CDC7/DBF4, 1.0E-07 M) | Residual activity ([2]; DYRK3, 1.0E-06 M) | Residual activity ([2]; DYRK3, 1.0E-07 M) | Residual activity, ROCK2 ([3]; assay conc. 1.0E-06 M) | Residual activity, ROCK2 ([3]; assay conc. 1.0E-07 M) | Residual activity ([4]; 1.0E-06 M) | Residual activity ([4]; 1.0E-07 M) | Residual activity ([5]; 1.0E-06 M) | Residual activity ([5]; 1.0E-07 M) | Residual activity ([6]; 1.0E-06 M) | Residual activity ([6]; 1.0E-07 M) | Residual activity ([7]; ACV-R1, 1.0E-06 M) | Residual activity ([7]; ACV-R1, 1.0E-07 M) | Residual activity ([8]; 1.0E-06 M) | Residual activity ([8]; 1.0E-07 M) | Residual activity ([9]; MARK2, 1.0E-06 M) | Residual activity ([9]; MARK2, 1.0E-07 M) | Residual activity ([10]; PRKD2, 1.0E-06 M) | Residual activity ([10]; PRKD2, 1.0E-07 M)
C#Cc1cc(Nc2ncnc3cc(I)ccc23)ccc1Cl [Compound 41] | 90 % of control | 89 % of control | 81 % of control | 96 % of control | 88 % of control | 100 % of control | 117 % of control | 118 % of control | 115 % of control | 134 % of control | 92 % of control | 91 % of control | 86 % of control | 91 % of control | 71 % of control | 103 % of control | 114 % of control | 104 % of control | 84 % of control | 97 % of control
C#Cc1cc(Nc2ncnc3cc(OC)c(OC)cc23)ccc1Cl [Compound 45] | 88 % of control | 107 % of control | 69 % of control | 97 % of control | 84 % of control | 90 % of control | 95 % of control | 105 % of control | 111 % of control | 129 % of control | 95 % of control | 97 % of control | 93 % of control | 98 % of control | 56 % of control | 96 % of control | 90 % of control | 103 % of control | 73 % of control | 80 % of control
